Assay results published in patent publication US10342819B2, “Oligonucleotide having non-natural nucleotide at 5′-terminal thereof” (Kyowa Hakko Kirin Co., Ltd., priority 2014, dated 2019).

molecular target: T1, AGO2-MID domain (Homo sapiens, UniProt Q9UKV8); assay: Biacore competition experiment of nucleotide (monomer) for the AGO2-MID domain (Test Examples 7 and 8); format: binding; settings: Test Example 8; 2.5 μg/mL AGO2-MID domain solution containing the monomer at 100 μM; read-out: inhibition rate (%) (100 μM AGO2-MID domain solutions)
T1 construct: mixed with an equal amount of a 5 μg/mL AGO2-MID domain solution
Experimental: HBS-EP+ 10× was diluted to 10-fold with pure water, and DTT was added thereto to give a final concentration of 2 mM, followed by filtration through a filter to prepare an HBS-EP+ 2 mM DTT aqueous solution. To this solution, dimethyl sulfoxide (DMSO) was added to give a final concentration of 1%, whereby a running buffer was prepared.
A monomer solution dissolved in DMSO or distilled water was diluted to 200 μM, 40 μM, 8 μM, and 1.6 μM/(2% DMSO, HBS-EP+, 2 mM DTT), and each of the diluted solutions was mixed with an equal amount of a 5 μg/mL AGO2-MID domain solution diluted with the HBS-EP+2 mM DTT solution, whereby 2.5 μg/mL AGO2-MID domain solutions containing the monomer at 100 μM, 20 μM, 4 μM, and 0.8 μM, respectively, were prepared as the HBS-EP+, 2 mM DTT, 1% DMSO solution.
A competition experiment by the siRNA was performed using a chip immobilized dT(16)-Biotin oligo thereon in the same manner as in Test Example 6. The flow rate is set to 30 μL/minute throughout the experiment, and one cycle is performed as follows: binding for 60 seconds, dissociation for 5 seconds, and regeneration 1 M NaCl for 5 seconds.
In order to stabilize the machine, the first 10 cycles are performed by adding only HBS-EP+, and thereafter, the measurement is performed for each monomer in the order of HBS-EP+(BLANK), a 2.5 μg/mL AGO2-MID domain solution (CONTROL), and 2.5 μg/mL AGO2-MID domain solutions (Sample) containing the monomer at 100 μM, 20 μM, 4 μM, and 0.8 μM, respectively, and a 2.5 μg/mL AGO2-MID domain solution (CONTROL). In the analysis, the binding level of the graph obtained by subtracting the graph for blank immobilization from the graph for the immobilized cell is used, and the residual binding ratio (%) is calculated according to ([Sample]−[BLANK])/([CONTROL]−[BLANK])×100, and the inhibition ratio (%) is calculated according to 100−(residual binding ratio).
In Table 36, the inhibition ratios (%) of 8-Br-dA (Compound I-1) and 5-fluoro-2′-deoxyuridine monophosphate (Compound I-4), and for comparison thereof, the inhibition ratios (%) of adenosine monophosphate (AMP) and uridine monophosphate (UMP) are shown.

SMILES | inhibition at 100 µM
O=c1[nH]c(=O)n([C@@H]2O[C@H](COP(=O)(O)O)[C@@H](O)[C@H]2O)cc1-c1ccccn1 [compound I-14, ((2R,3S,4R,5R)-5-(2,4-Dioxo-5-(pyridin-2-yl)-3,4-dihydropyrimidin-1 (2H)-yl)-3,4-dihydroxytetrahydrofuran-2-yl)methyl phosphate] | 63.3%
O=c1[nH]c(=O)n([C@@H]2O[C@H](COP(=O)(O)O)[C@@H](O)[C@H]2O)cc1-c1ncco1 [compound I-15, ((2R,3S,4R,5R)-3,4-Dihydroxy-5-(5-(oxazol-2-yl)-2,4-dioxo-3,4-dihydropyrimidin-1(2H)-yl)tetrahydrofuran-2-yl)methyl phosphate] | 73%
COc1ccc(-c2cn([C@@H]3O[C@H](COP(=O)(O)O)[C@@H](O)[C@H]3O)c(=O)[nH]c2=O)cc1 [compound I-16, ((2R,3S,4R,5R)-3,4-Dihydroxy-5-(5-(4-methoxyphenyl)-2,4-dioxo-3,4-dihydropyrimidin-1(2H)-yl)tetrahydrofuran-2-yl)methyl phosphate] | 65.6%
O=P(O)(O)OC[C@H]1O[C@@H](n2c(Br)nc3c(/C=C/c4ccccc4)ncnc32)[C@H](O)[C@@H]1O [compound I-18, ((2R,3S,4R,5R)-5-(8-Bromo-6-((E)-styryl)-9H-purin-9-yl)-3,4-dihydroxytetrahydrofuran-2-yl)methyl phosphate] | 97.8%
Cc1sc2c(c1C)c(=O)[nH]c(=O)n2[C@@H]1O[C@H](COP(=O)(O)O)[C@@H](O)[C@H]1O [compound I-19, ((2R,3S,4R,5R)-5-(5,6-Dimethyl-2,4-dioxo-3,4-dihydrothieno [2,3-d]pyrimidin-1 (2H)-yl)-3,4-dihydroxytetrahydrofuran-2-yl)methyl phosphate] | 89.7%
CC(C)c1cccc(-c2ncnc3c2ncn3[C@@H]2O[C@H](COP(=O)(O)O)[C@@H](O)[C@H]2O)c1 [compound I-20, ((2R,3S,4R,5R)-3,4-dihydroxy-5-(6-(3-isopropylphenyl)-9H-purin-9-yl)tetrahydrofuran-2-yl)methyl phosphate] | 76.9%
O=P(O)(O)OC[C@H]1O[C@@H](n2cnc3c(-c4ccc5ccccc5c4)ncnc32)[C@H](O)[C@@H]1O [compound I-21, ((2R,3S,4R,5R)-3,4-Dihydroxy-5-(6-(naphthalen-2-yl)-9H-purin-9-yl)tetrahydrofuran-2-yl)methyl phosphate] | 78.2%
O=Cc1cccc(-c2ncnc3c2ncn3[C@@H]2O[C@H](COP(=O)(O)O)[C@@H](O)[C@H]2O)c1 [compound I-22, ((2R,3S,4R,5R)-3,4-Dihydroxy-5-(6-(3-formylphenyl)-9H-purin-9-yl)tetrahydrofuran-2-yl)methyl phosphate] | 91.6%
O=c1[nH]c(=O)n([C@@H]2O[C@H](COP(=O)(O)O)[C@@H](O)[C@H]2O)c2ccc([N+](=O)[O-])cc12 [compound I-23, ((2R,3S,4R,5R)-3,4-Dihydroxy-5-(6-nitro-2,4-dioxo-3,4-dihydroquinazolin-1(2H)-yl)tetrahydrofuran-2-yl)methyl phosphate] | 85.2%
Cc1c(C#N)n([C@@H]2O[C@H](COP(=O)(O)O)[C@@H](O)[C@H]2O)c(=O)[nH]c1=O [compound I-24, ((2R,3S,4R,5R)-5-(6-cyano-5-methyl-2,4-dioxo-3,4-dihydropyrimidin-1 (2H)-yl)-3,4-dihydroxytetrahydrofuran-2-yl)methyl phosphate] | 88.4%
O=P(O)(O)OC[C@H]1O[C@@H](n2cnc3c(-c4cccc5ccccc45)ncnc32)[C@H](O)[C@@H]1O [compound I-25, ((2R,3S,4R,5R)-3,4-Dihydroxy-5-(6-(naphthalen-1-yl)-9H-purin-9-yl)tetrahydrofuran-2-yl)methyl phosphate] | 33.9%
O=P(O)(O)OC[C@H]1O[C@@H](n2cnc3c(-c4cccc(-c5ccccc5)c4)ncnc32)[C@H](O)[C@@H]1O [compound I-26, ((2R,3S,4R,5R)-5-(6-(Biphenyl-3-yl)-9H-purin-9-yl)-3,4-dihydroxytetrahydrofuran-2-yl)methyl phosphate] | 82.4%
Nc1cccc(-c2ncnc3c2ncn3[C@@H]2O[C@H](COP(=O)(O)O)[C@@H](O)[C@H]2O)c1 [compound I-27, ((2R,3S,4R,5R)-5-(6-(3-Aminophenyl)-9H-purin-9-yl)-3,4-dihydroxytetrahydrofuran-2-yl)methyl phosphate] | 92.4%
O=P(O)(O)OC[C@H]1O[C@@H](n2cnc3c(-c4cccc(N5CCOCC5)c4)ncnc32)[C@H](O)[C@@H]1O [compound I-28, ((2R,3S,4R,5R)-3,4-Dihydroxy-5-(6-(3-morpholinophenyl)-9H-purin-9-yl)tetrahydrofuran-2-yl)methyl phosphate] | 77%
O=P(O)(O)OC[C@H]1O[C@@H](n2cnc3c(-c4cccc(OCc5ccccc5)c4)ncnc32)[C@H](O)[C@@H]1O [compound I-29, ((2R,3S,4R,5R)-5-(6-(3-(Benzyloxy)phenyl)-9H-purin-9-yl)-3,4-dihydroxytetrahydrofuran-2-yl)methyl phosphate] | 77.9%
O=C(O)c1cccc(-c2ncnc3c2ncn3[C@@H]2O[C@H](COP(=O)(O)O)[C@@H](O)[C@H]2O)c1 [compound I-30, ((2R,3S,4R,5R)-5-(6-(3-(carboxy)phenyl)-9H-purin-9-yl)-3,4-dihydroxytetrahydrofuran-2-yl)methyl phosphate] | 73.2%
O=c1[nH]c(=O)n([C@@H]2O[C@H](COP(=O)(O)O)[C@@H](O)[C@H]2O)cc1/C=C/c1ccccc1 [compound I-31, ((2R,3S,4R,5R)-5-(2,4-Dioxo-5-styryl-3,4-dihydropyrimidin-1(2H)-yl)-3,4-dihydroxytetrahydrofuran-2-yl)methyl phosphate] | 73.6%
Cc1cn([C@@H]2O[C@H](COP(=O)(O)O)[C@@H](O)[C@H]2O)c(=O)[nH]c1=O [compound I-33, ((2R,3S,4R,5R)-3,4-Dihydroxy-5-(5-methyl-2,4-dioxo-3,4-dihydropyrimidin-1(2H)-yl)tetrahydrofuran-2-yl)methyl phosphate] | 82.9%
Cc1cc(=O)[nH]c(=O)n1[C@@H]1O[C@H](COP(=O)(O)O)[C@@H](O)[C@H]1O [compound I-34, ((2R,3S,4R,5R)-3,4-Dihydroxy-5-(6-methyl-2,4-dioxo-3,4-dihydropyrimidin-1(2H)-yl)tetrahydrofuran-2-yl)methyl phosphate] | 31.8%
O=c1[nH]c(=O)n([C@@H]2O[C@H](COP(=O)(O)O)[C@@H](O)[C@H]2O)c2cc(Cl)c([N+](=O)[O-])cc12 [compound I-35, ((2R,3S,4R,5R)-5-(7-Chloro-6-nitro-2,4-dioxo-3,4-dihydroquinazolin-1(2H)-yl)-3,4-dihydroxytetrahydrofuran-2-yl)methyl phosphate] | 88%
CN(C)c1cc2c(cc1[N+](=O)[O-])c(=O)[nH]c(=O)n2[C@@H]1O[C@H](COP(=O)(O)O)[C@@H](O)[C@H]1O [compound I-36, ((2R,3S,4R,5R)-5-(7-(Dimethylamino)-6-nitro-2,4-dioxo-3,4-dihydroquinazolin-1(2H)-yl)-3,4-dihydroxytetrahydrofuran-2-yl)methyl phosphate] | 91.6%
CNc1cc2c(cc1[N+](=O)[O-])c(=O)[nH]c(=O)n2[C@@H]1O[C@H](COP(=O)(O)O)[C@@H](O)[C@H]1O [compound I-37, ((2R,3S,4R,5R)-3,4-Dihydroxy-5-(7-(methylamino)-6-nitro-2,4-dioxo-3,4-dihydroquinazolin-1(2H)-yl)tetrahydrofuran-2-yl)methyl phosphate] | 92.3%
O=P(O)(O)OC[C@H]1O[C@@H](n2cnc3c(/C=C/c4cccc(Cl)c4)ncnc32)[C@H](O)[C@@H]1O [compound I-38, ((2R,3S,4R,5R)-5-(6-(3-Chlorostyryl)-9H-purin-9-yl)-3,4-dihydroxytetrahydrofuran-2-yl)methyl phosphate] | 78.9%

same assay, conditions: read-out: inhibition rate (%) (100 μM AGO2-MID domain solutions)

SMILES | inhibition at 100 µM
N#Cc1cc(=O)[nH]c(=O)n1[C@@H]1O[C@H](COP(=O)(O)O)[C@@H](O)[C@H]1O [compound I-17, ((2R,3S,4R,5R)-5-(6-Cyano-2,4-dioxo-3,4-dihydropyrimidin-1(2H)-yl)-3,4-dihydroxytetrahydrofuran-2-yl)methyl phosphate] | 86%
